This is an account of results in PubChem BioAssay (NCI).

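Protocol summary: plate cells (96-well), add compound at 5 concentrations, incubate 48 h, interpolate endpoints linearly. TGI: concentration producing complete growth inhibition.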

This test has as its system P388 leukemia. As to the kind of experiment: NCI tumour cell line growth inhibition, 48 h.

For the compound `CC1[C@@H]2CC=C3[C@H]4CCC5Cc6nc7c(nc6C[C@@]5(C)C4CC(=O)[C@]32CO[C@]12OC(C)(C)CC2O)CC1CC[C@@H]2C3=C[C@H]4O[C@@]5(O[C@@](C)(CO)C[C@@H]5O)C(C)[C@@]4(O)[C@]3(C)[C@@H](O)CC2[C@]1(C)C7` (stereo partly specified), the TGI was determined as 0.638 nM.
